Source: ChEMBL document CHEMBL4402583, “Rational Substitution of ε-Lysine for α-Lysine Enhances the Cell and Membrane Selectivity of Pore-Forming Melittin” (J Med Chem, 2020)
Values after ≈ are worked out from the molar mass of the structure shown.

What was measured:
[1] = test system: Enterococcus faecalis; assay: Ratio of MIC for vancomycin-resistant Enterococcus faecalis 1010 to MIC for Mel-5-resistant vancomycin-resistant Enterococcus faecalis 1010 incubated for 24 hrs by broth microdilution method; type: functional
[2] = test system: Staphylococcus aureus; assay: In vivo antibacterial activity against Staphylococcus aureus ATCC 29213 infected in C57BL/6 mouse assessed as reduction in bacterial burden by measuring log10 CFU/cornea at 0.3% administered topically as two times on day 1, four times on day 2 and two times on day 3 measured at 48 hrs post-final dose by 10 fold serial dilution method (reference value: 6.5 +/- 0.7 log10CFU); type: functional
[3] = test system: Enterococcus faecalis; assay: Antibacterial activity against Mel-5-resistant vancomycin-resistant Enterococcus faecalis 1010 assessed as reduction in bacterial growth measured after 24 hrs by broth microdilution method; type: functional; details: Enterococcus faecalis, 1010, 24 h
[4] = test system: Enterococcus faecalis; assay: Antibacterial activity against vancomycin-resistant Enterococcus faecalis 1010 assessed as reduction in bacterial growth measured after 24 hrs by broth microdilution method; type: functional; details: Enterococcus faecalis, 1010, 24 h
[5] = test system: Enterococcus faecalis; assay: Resistance index, ratio of MIC for vancomycin-resistant Enterococcus faecalis 1010 measured after 14 serial passages by broth microdilution method to MIC for vancomycin-resistant Enterococcus faecalis 1010 incubated for 24 hrs by broth microdilution method; type: functional
[6] = test system: Enterococcus faecalis; assay: Ratio of MIC for Mel-5-resistant vancomycin-resistant Enterococcus faecalis 1010 to MIC for vancomycin-resistant Enterococcus faecalis 1010 incubated for 24 hrs by broth microdilution method; type: functional
[7] = Cytotoxicity against HDF cells assessed as cell viability at 250 ug/ml incubated for 24 hrs by MTS assay relative to control; type: cell-based; details: human, HDF cells (NHDF, human dermal fibroblasts); read-out: Activity
[8] = test system: NHDF; assay: Cytotoxicity against HDF cells assessed as reduction in metabolic activity at 500 ug/ml incubated for 24 hrs by MTS assay relative to control; type: ADME, cell-based; set-up: scale not given: the % may be the effect or the level left; details: human
[9] = test system: NHDF; assay: Cytotoxicity against HDF cells at 250 ug/ml incubated for 24 hrs by Alexa Fluor […] phalloidin-FITC/Hoescht dye staining based fluorescence microscopic analysis; type: cell-based; details: human
[10] = Cytotoxicity against HDF cells assessed as cell viability at 125 ug/ml incubated for 24 hrs by MTS assay relative to control; type: cell-based; details: human, HDF cells (NHDF, human dermal fibroblasts); read-out: Activity
[11] = test system: Enterococcus; assay: Antibacterial activity against vancomycin-resistant Enterococcus assessed as reduction in bacterial growth incubated for 24 hrs by broth microdilution method; type: functional
[12] = Cytotoxicity against HDF cells assessed as minimum cytotoxic concentration incubated for 24 hrs by Alexa Fluor […] phalloidin-FITC/Hoescht dye staining based fluorescence microscopic analysis; type: cell-based; details: human, HDF cells (NHDF, human dermal fibroblasts)
[13] = test system: Staphylococcus aureus; assay: Antibacterial activity against Staphylococcus aureus assessed as reduction in bacterial growth incubated for 24 hrs by broth microdilution method; type: functional
[14] = test system: Lipid bilayer; assay: Induction of pore formation in negatively charged DOPE/DOPG large unilamellar vesicles assessed as calcein release at 0.39 to 50 uM measured for 60 mins by fluorescence based assay
[15] = test system: Enterobacteriaceae; assay: Antibacterial activity against Carbapenem-Resistant Enterobacteriaceae assessed as reduction in bacterial growth incubated for 24 hrs by broth microdilution method; type: functional
[16] = test system: Candida albicans; assay: Antifungal activity against Candida albicans assessed as reduction in fungal growth incubated for 24 hrs by broth microdilution method; type: functional
[17] = test system: Staphylococcus aureus; assay: Antibacterial activity against methicillin-resistance Staphylococcus aureus assessed as reduction in bacterial growth incubated for 24 hrs by broth microdilution method; type: functional
[18] = test system: Acinetobacter baumannii; assay: Antibacterial activity against multidrug-resistant Acinetobacter baumannii assessed as reduction in bacterial growth incubated for 24 hrs by broth microdilution method; type: functional
[19] = test system: Staphylococcus aureus; assay: Antibacterial activity against methicillin-sensitive Staphylococcus aureus assessed as reduction in bacterial growth incubated for 24 hrs by broth microdilution method; type: functional
[20] = Cytotoxicity against HDF cells assessed as minimum cytotoxic concentration incubated for 24 hrs by MTS assay; type: cell-based; details: human, HDF cells (NHDF, human dermal fibroblasts)
[21] = test system: Lipid bilayer; assay: Induction of pore formation in zwitterionic DOPC/cholesterol large unilamellar vesicles assessed as calcein release at 0.39 to 50 uM measured for 60 mins by fluorescence based assay
[22] = test system: Pseudomonas aeruginosa; assay: Antibacterial activity against Pseudomonas aeruginosa assessed as reduction in bacterial growth incubated for 24 hrs by broth microdilution method; type: functional

Work on `COc1c(N2CCNC(C)C2)c(F)cc2c(=O)c(C(=O)O)cn(C3CC3)c12` (stereo not given) [GATIFLOXACIN] yielded a Ratio [1] of 8, an Activity [2] of 2.5 log10CFU and an MIC [3] of 8 µg/mL (≈ 21.3 µM). For the same compound, the MIC [4] was 4 µg/mL (≈ 10.7 µM).
`CCCCCCCCCC(=O)N[C@@H](Cc1c[nH]c2ccccc12)C(=O)N[C@H](CC(N)=O)C(=O)N[C@@H](CC(=O)O)C(=O)N[C@@H]1C(=O)NCC(=O)N[C@@H](CCCN)C(=O)N[C@@H](CC(=O)O)C(=O)N[C@H](C)C(=O)N[C@@H](CC(=O)O)C(=O)NCC(=O)N[C@H](CO)C(=O)N[C@@H]([C@@H](C)CC(=O)O)C(=O)N[C@@H](CC(=O)c2ccccc2N)C(=O)O[C@@H]1C` gave an MIC [3] greater than 512 µg/mL, a Ratio [5] of 4 and a Ratio [6] greater than 128. It also gave an MIC [4] of 64 µg/mL (≈ 39.5 µM).
With `CC[C@H](C)[C@H](NC(=O)CN)C(=O)NCC(=O)N[C@@H](C)C(=O)N[C@H](C(=O)N[C@@H](CC(C)C)C(=O)NCCC[C@@H](CN)C(=O)N[C@H](C(=O)N[C@@H](CC(C)C)C(=O)N[C@H](C(=O)N[C@H](C(=O)NCC(=O)N[C@@H](CC(C)C)C(=O)N1CCC[C@H]1C(=O)N[C@@H](C)C(=O)N[C@@H](CC(C)C)C(=O)N[C@H](C(=O)N[C@@H](CO)C(=O)N[C@@H](Cc1c[nH]c2ccccc12)C(=O)N[C@H](C(=O)N[C@@H](CCCCN)C(=O)N[C@@H](CCCNC(=N)N)C(=O)N[C@@H](CCCCN)C(=O)N[C@@H](CCCNC(=N)N)C(=O)N[C@@H](CCC(N)=O)C(=O)N[C@@H](CCC(N)=O)C(N)=O)[C@@H](C)CC)[C@@H](C)CC)[C@@H](C)O)[C@@H](C)O)C(C)C)C(C)C` the viability at 24 h, 250 ug/ml [7] was 32.4%, the Activity [8] was 100% and the Activity [9] was “Toxic”. The viability at 24 h, 125 ug/ml [10] was 112%, the MIC [11] was 4 to 32 µg/mL (≈ 1.41 to 11.2 µM) and the MIC50 [11] was 8 µg/mL (≈ 2.81 µM). It also gave an MCC at 24 h [12] greater than 125 µg/mL, an MIC [13] of 8 to 32 µg/mL (≈ 2.81 to 11.2 µM) and an Activity [14] of 41.8%. It also gave an MIC [15] of 4 to 64 µg/mL (≈ 1.41 to 22.5 µM), an MIC50 [15] of 8 µg/mL (≈ 2.81 µM) and an MIC [16] of 4 to 8 µg/mL (≈ 1.41 to 2.81 µM). It also gave an MIC50 [16] of 4 µg/mL (≈ 1.41 µM), an MIC50 [17] of 16 µg/mL (≈ 5.62 µM) and an MIC [18] of 2 to 4 µg/mL (≈ 0.703 to 1.41 µM). It also gave an MIC50 [18] of 2 µg/mL (≈ 0.703 µM), an MIC [19] of 4 to 32 µg/mL (≈ 1.41 to 11.2 µM) and an MIC50 [19] of 16 µg/mL (≈ 5.62 µM). It also gave an MCC at 24 h [20] greater than 125 µg/mL, an Activity [21] of 7.8% and an MIC [22] of 8 to 64 µg/mL (≈ 2.81 to 22.5 µM). The MIC50 [22] was 16 µg/mL (≈ 5.62 µM).
